Legend:
Conditions in all cases: stereoisomer not certain
[1] = RP, Thermo Scientific Acclaim RSLC 120 C18, 100 × 2.1 mm, 2.2 µm, 30 °C, 0.2 mL/min, estimated dead time 1.1 min; A: water + 0.1% formic acid, pH 2.6; B: methanol + 0.1% formic acid, pH 2.6; gradient (min/%B) 0/10 4/50 17/95 25/95 25.1/10 30/10
[2] = RP, Waters ACQUITY UPLC BEH C18, 100 × 2.1 mm, 1.7 µm, 30 °C, 0.35 mL/min, estimated dead time 0.63 min; A: water + 0.01% formic acid + 5 mM ammonium formate, pH 3.71; B: acetonitrile + 0.01% formic acid, pH 3.71; gradient (min/%B) 0/10 3/10 22/100 30/100 30.1/10 40/10
[3] = RP, Waters ACQUITY UPLC BEH C18, 100 × 2.1 mm, 1.7 µm, 35 °C, 0.35 mL/min, estimated dead time 0.63 min; A: water + 0.01% formic acid + 5 mM ammonium formate, pH 3.71; B: acetonitrile + 0.01% formic acid, pH 3.71; gradient (min/%B) 0/5 0.5/5 16/95 16.1/99 19/99 19.1/5 21/5
[4] = RP, Thermo Scientific Acclaim RSLC 120 C18, 100 × 2.1 mm, 2.2 µm, 30 °C, 0.2 mL/min, estimated dead time 1.1 min; A: 90% water + 10% methanol + 0.01% formic acid + 5 mM ammonium formate, pH 3.61; B: methanol + 0.01% formic acid + 5 mM ammonium formate, pH 3.61; gradient (min/%B) 0/1 1/1 2/39 13/99.9 15/99.9 15.1/1 20.1/1

SMILES	LC retention time [1] [min]	LC retention time [2] [min]	LC retention time [3] [min]	LC retention time [4] [min]
COc1cc(Cc2cnc(N)nc2N)cc(OC)c1OC [Trimethoprim]	3.86	4.48	3.78	4.06
Nc1nnc(-c2cccc(Cl)c2Cl)c(N)n1 [Lamotrigine]	5.17	6.41	4.66	5.31
CCCCCc1cc(O)c2c(c1)OC(C)(C)C1CCC(C)=CC21 (stereo not given) [THC]	18.7	19.6	15.1	14
CCOc1ccc(NC(C)=O)cc1 [Phenacetin]	6.82	7.53	5.58	5.93
CC(C)NCC(O)COc1ccc(COCCOC(C)C)cc1 (stereo not given) [Bisoprolol]	5.8	8.09	5.91	5.91
Cn1c(=O)c2[nH]cnc2n(C)c1=O [Theophylline]	4.14	1.66	2.31	3.93
CCCCC(CC)COC(=O)C(C#N)=C(c1ccccc1)c1ccccc1 (stereo not given) [Octocrylene]	18	19.8	15.3	13.4
COP(=O)(OC)OC=C(Cl)Cl [Dichlorvos]	8.02	9.14	6.79	7
NC(=O)c1ccccc1Oc1ccccc1 [Phenoxybenzamide]	9.15	11.5	8.66	7.79
CCN(CC)C(=O)Nc1ccc(OCC(O)CNC(C)(C)C)c(C(C)=O)c1 (stereo not given) [Celiprolol]	5.29	7.46	5.34	5.24
NC1Cc2cc3c(cc2C1)OCO3 [MDAI]	3.47	2.34	2.95	3.81
CC(N)Cc1ccccc1 (stereo not given) [Amphetamine]	3.86	2.99	3.28	4.16
CCNc1nc(N)nc(Cl)n1 [Atrazine-desisopropyl]	5.22	3.51	3.58	4.75
COc1cccc(C2(O)CCCCC2CN(C)C)c1 (stereo not given) [Tramadol]	4.86	6.56	4.79	4.88
CCC(C(N)=O)N1CCCC1=O (stereo not given) [Levetiracetam]	3.89	1.68	2.43	3.74

Now from value to molecule:

LC retention time [1] [min]	LC retention time [2] [min]	LC retention time [3] [min]	LC retention time [4] [min]	SMILES
13.1	14	10.7	10.7	CC(C)Cc1ccc(C(C)C(=O)O)cc1 (stereo not given) [Ibuprofen]
12.5	13	9.87	10.1	COC1C=COC2(C)Oc3c(C)c(O)c4c(O)c(c5c(nc6cc(C)ccn65)c4c3C2=O)NC(=O)C(C)=CC=CC(C)C(O)C(C)C(O)C(C)C(OC(C)=O)C1C (stereo not given) [Rifaximin]
3.69	4.14	3.7	3.89	CC(C)NCC(O)COc1cccc2[nH]ccc12 (stereo not given) [Pindolol]
1.34	1.03	1.17	2.41	CN1CCCC1c1cccnc1 (stereo not given) [Nicotine]
10.7	10.8	8.16	8.83	CCC(C)OC(=O)N1CCCCC1CCO (stereo not given) [Picaridin (Icaridin)]
7.75	10.1	7.42	7.88	CCC1OC(=O)CC(O)C(C)C(OC2OC(C)C(OC3CC(C)(O)C(O)C(C)O3)C(N(C)C)C2O)C(CC=O)CC(C)C(=O)C=CC(C)=CC1COC1OC(C)C(O)C(OC)C1OC (stereo not given) [Tylosin]
2.13	1.31	1.27	3.14	Nc1ncnc2c1ncn2C1OC(CO)C(O)C1O (stereo not given) [Adenosine]
1.34	0.81	0.83	1.38	C=CC(N)CCC(=O)O (stereo not given) [Vigabatrin]
6.34	7.89	5.86	6.71	CC(N)C12CC3CC(CC(C3)C1)C2 (stereo not given) [Rimantadin]
4.94	6.53	4.79	4.93	COCCc1ccc(OCC(O)CNC(C)C)cc1 (stereo not given) [Metoprolol]

From the RepoRT retention time repository (doi:10.1021/acs.analchem.2c02893)
